Data reported in patent publication US20160219829A1, “ANTI-ODOR MATERIAL FOR ANIMAL LITTERS USING PHOSPHOROTRIAMIDES IN POWDER FORM” (priority 2013, published 2016).

Molecular target: T1, urease (Canavalia ensiformis, UniProt P07374)
T1 construct: purchased Sigma
Type: biochemical
Procedure: To simulate soiled anti-odor material, urea/urease solution was prepared and added to the anti-odor material.
In the same beaker, weight 50 g of demineralised water.
In a small plastic cup, weight 0.012 g of urease. Then empty the plastic cup in the beaker containing the water and rinse it with the water/urea solution.
Fill a standard volume with anti-odor material (litter+n-BTPT powder) and equalize the surface. Empty the standard volume in a plastic bowl used for analysis.
Empty slowly the urea/urease solution on the anti-odor material while making sure that no solution comes in contact with sides of the plastic bowl.
Put a cover on the plastic bowl (the cover having a hole).
Insert the tube of a Gastec pump (GV-100S) in the hole of the cover.
Note the start time of the test and take a reading of the tube every 30 minutes for the first 7 hours.
Take a reading at 24 and 48 hour.
Dosimetry tests were performed according to the methodology above. The results were taken after 48 h of testing.
Dosimetry tests were then realised to evaluate the performance of the litter samples by measuring the ammonia release (in ppm). More particularly, performances of the odor-retardant material with n-BTPT in a powder form, in melted phase or coating a particulate support could be evaluated.

T1 sequence (P07374 whole entry, looked up): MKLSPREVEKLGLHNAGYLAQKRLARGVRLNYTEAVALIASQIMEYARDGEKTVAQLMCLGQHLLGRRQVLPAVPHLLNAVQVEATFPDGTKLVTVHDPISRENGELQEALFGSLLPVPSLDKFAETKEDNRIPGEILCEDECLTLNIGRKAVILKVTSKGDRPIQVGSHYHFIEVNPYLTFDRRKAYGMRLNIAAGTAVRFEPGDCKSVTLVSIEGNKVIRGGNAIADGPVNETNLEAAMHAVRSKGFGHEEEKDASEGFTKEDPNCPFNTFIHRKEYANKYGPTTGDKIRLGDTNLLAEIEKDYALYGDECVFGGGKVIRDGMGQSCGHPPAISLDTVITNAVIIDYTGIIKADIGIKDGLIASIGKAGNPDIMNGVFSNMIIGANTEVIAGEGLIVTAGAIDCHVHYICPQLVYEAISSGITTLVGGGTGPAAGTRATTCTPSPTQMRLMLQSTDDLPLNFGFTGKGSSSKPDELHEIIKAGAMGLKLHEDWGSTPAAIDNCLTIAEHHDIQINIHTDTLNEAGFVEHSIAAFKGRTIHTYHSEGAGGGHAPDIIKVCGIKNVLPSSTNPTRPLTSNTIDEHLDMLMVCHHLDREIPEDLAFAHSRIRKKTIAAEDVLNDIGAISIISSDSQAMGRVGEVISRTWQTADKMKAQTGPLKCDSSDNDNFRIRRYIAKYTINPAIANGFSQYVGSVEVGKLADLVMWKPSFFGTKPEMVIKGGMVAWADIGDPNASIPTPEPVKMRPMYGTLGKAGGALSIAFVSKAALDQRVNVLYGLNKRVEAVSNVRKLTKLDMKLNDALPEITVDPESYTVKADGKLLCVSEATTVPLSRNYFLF

In the case of `CCCCNP(N)(N)=S` [n-BTPT, N-(n-butyl)thiophosphoric triamide], the “Ammonia release (48 h)” value (final concentration 350 g/MT n-BTPT in litter, bentonite absorptive substrate) is reported as 25 ppm and the “ammonia release reaches a maximum (FIG. 1)” value (n-BTPT concentration of 0.03%, grinded powder in litter, 48 h) is reported as 62%.
